Data as given in US5437980A, “Phenanthridium dye staining of nucleic acids in living cells” (Molecular Probes, Inc., priority 1993, dated 1995).
Entries after “also recorded” stand apart in the source; their conditions may differ.

Legend:
Bacillus cereus = assay: Relative rate and extent of dye uptake into living Bacillus cereus (Example 2, FIG. 1); format: cell-based; details: 2 μM dye, 23° C.
Method: FIG. 1. Relative Uptake of Dyes into Living Cells. Uptake of ethidium, butidium, hexidium and octidium by Bacillus cereus as described in Example 2.
Bacillus cereus is grown in nutrient broth to log phase, washed by centrifugation, and resuspended in water to a density of 5×10^6 cfu/mL (as determined in Example 1). One centimeter pathlength acrylic cuvettes containing 3 mL of cell suspension are placed in a fluorescence spectrophotometer equipped with a temperature regulated cuvette holder and magnetic stirrer. The suspensions are brought to 23° C. prior to dye addition. To a cuvette of 3 mL bacteria suspension is added 3 μL of 2 mM dye stock solutions in DMSO to give a final dye concentration of 2 μM to produce the maximum attainable fluorescence/cell at the 600 nm emission wavelength (determined as in Example 1). The peak fluorescence excitation and emission wavelengths are determined by scanning the spectrum of the dye in suspensions of Bacillus cereus incubated for 30 min with the dye. Fluorescence intensity of the suspensions is measured using 488 nm excitation and 600 nm emission wavelengths. Sampling of fluorescence is carried out at 5 or 10 Hz until the fluorescence signal appears to stabilize.

mushroom spores = assay: Staining of mushroom spores by fluorescence microscopy (Example 4); format: cell-based, agaric; details: 10-20 μM dye, 30 min, room temperature
Method: Spores are rinsed from the gills on the underside of the cap of an agaric using a stream of distilled water. The spores are concentrated by centrifugation for 30 sec at 10,000 rpm in a microcentrifuge then a minimal volume of a 10-20 μM solution of the 5-DAPP/LIVE dye in distilled water is added. The suspension is incubated with the dye for 30 min at room temperature then a 15 μL aliquot of the suspension is mounted on between a coverglass and the slide for viewing in the presence of the dye. The cellular fluorescence is observed on a Zeiss Axioplan fluorescence microscope using fluorescein (long:pass emission) or rhodamine filter sets.

Saccharomyces = assay: Staining of yeast (Example 5); format: cell-based; details: 10 μM dye, 30 min, 37° C.
Method: Yeast cells are washed by centrifugation and then resuspended in a solution of 2% glucose and 10 mM Na-HEPES, pH 7.4 to a cell density of between 5×10^5 and 2×10^6 cells/mL optical density at 410 nm (previously calibrated with YPD agar plate colony counts). Sufficient 10 mM stock solution of the 5-DAPP/LIVE dye in DMSO is added to effect a final concentration of 10 μM of the dye in the medium. The suspension is incubated for 30 min at 37° C. then 15 μL are placed between a coverglass and the microscope slide. The cellular fluorescence is observed using fluorescein (long-pass emission) or rhodamine filter sets.

[1] = test system: epidermal tissue of the bulb, Alium spp.; assay: Staining of plant cell tissue (Example 6); format: cell-based; details: 10 μM dye, 30 min, room temperature
Method: A small section of tissue from the bulb is removed with a razor blade. 0.5 mL of a 10 μM solution of the 5-DAPP/LIVE dye in distilled water is dispensed into a small glass dish. The epidermal tissue is cut into sections and placed in the dye solution. The tissue is stained for 30 min at room temperature in the dark then the tissue preparation is mounted in the presence of the dye between a coverglass and the slide.

[2] = test system: free-living ciliate and flagellate protozoans; assay: Staining of protozoa (Example 7); format: cell-based; details: 1 μL of 10 mM dye in 1 mL culture, 10 min, ambient temperature
Method: 1 μL of 10 mM the 5-DAPP/LIVE dye stock is added to 1 mL of protozoan culture. The medium is incubated for 10 min at ambient temperature. 15 μL of this preparation is mounted with dye between a coverglass and the slide. Using this procedure, the nuclei of most cells of the free-living ciliate and flagellate protozoans are stained under these conditions.

sea urchin sperm = assay: Staining of sea urchin sperm (Example 8); format: cell-based; details: 2 μM dye, 5 min, room temperature
Method: Sperm cells are released from sea urchins by injection of KCl and the cells are concentrated by low speed centrifugation and suspended in 1 mL artificial seawater (ASW) at room temperature. Sufficient 10 mM dye stock solution is added to the sperm suspension to obtain a final dye concentration of 2 μM. The sperm are labeled by incubation in the dye solution for 5 min at room temperature. The sperm are washed by centrifugation at 2000 rpm for 1 min and then resuspended in 1 mL ASW before mounting and observation.

[3] = test system: 3T3 mouse fibroblast cells; assay: Pulse-chase staining of lysosomal compartments in cultured mammalian cells (Example 10); format: cell-based
Method: 3T3 mouse fibroblast cells are grown on coverslips in calf serum-supplemented DMEM medium. The coverslips of cells are washed using the HBSS+, then hexidium solutions are prepared to final concentrations of 2 μM and 0.2 μM in HBSS+. The cells are incubated in the dye-containing medium for 2 min at room temperature then they are washed in HBSS +and viewed by epifluorescence microscopy using a long-pass fluorescein or a rhodamine filter set.

[4] = test system: peripheral blood lymphocytes; assay: Staining of peripheral blood lymphocytes, fluorometer (Example 11); format: cell-based, goat; details: on the scale of seconds
Method: Peripheral blood lymphocytes (PBL) are isolated from fresh heparinized goat blood and resuspended in buffer consisting of 135 mM NaCl, 5 mM KCl, 20 mM HEPES, 1 mM CaCl2, 1 mM MgCl2, pH 7.4 (HBSS+). The cells are resuspended to 10^6 mL (as determined by direct microscopic count using a standard hemocytometer) in a final volume of 3 mL in the above buffer in a quartz cuvette. 5-DAPP/LIVE dye stocks are prepared to final concentrations of 2 mM in DMSO. 3 μL of the octidium dye stock solution is injected into the cuvette to a final concentration of 2 μM. In a fluorometer, the sample is excited at 520 nm and fluorescence emission is monitored at 600 nm over the time required for the fluorescence signal to become stable. Hexidium, butidium and ethidium bromide are injected into separate samples of PBL to determine the relative rates of uptake for these stains. The volume of dye solution added to the cuvette is corrected by a factor relating the absorbance of the dye to the absorbance of a 2 mM octidium solution.

living cells = assay: Entry into / staining of living cells, general; format: cell-based; details: general summary
gram-positive bacteria = details: mild conditions; application Ser. No. 08/047,683; cited from earlier work
gram-negative bacteria = details: mild conditions; application Ser. No. 08/047,683; cited from earlier work

CCCCCC[n+]1c(-c2ccccc2)c2cc(N)ccc2c2ccc(N)cc21 [hexidium]
extent of loading (Bacillus cereus): optimal | rate of dye loading (Bacillus cereus; 488 nm excitation, 600 nm emission): increases with carbon chain length | staining of spores (in words) (mushroom spores): stains all spores brightly; also recorded: stained most effectively | staining distribution and intensity (Saccharomyces): less of a hazy cytoplasmic stain and more distinct nuclei | cell wall / surface staining [1]: more hazy surface staining occurs with ethidium and butidium than with hexidium or octidium | staining of nuclei of protozoans [2]: slightly better than octidium | effect on motility of the sperm or ability to fertilize a sea urchin egg (sea urchin sperm): no apparent effect | staining of sperm nuclei (sea urchin sperm): sperm nuclei stain brightly | labeling after brief pulse-chase loading ([3]; 0.2 μM, 2 min, room temperature): labeling of punctate structures in the cell cytoplasm; also recorded: green | labeling after brief loading ([3]; 2 μM, 2 min, room temperature): additional organellar staining, which is apparently mitochondrial | effect of chloroquine preincubation on staining ([3]; 300 μM chloroquine): reduces the amount of cytoplasmic staining | staining of nuclei ([3]; under both conditions (0.2 and 2 μM)): stained slightly, but only in the nucleolar regions | distribution of dye into nucleus of lymphocytes [4]: virtually instantaneous | membrane permeability (living cells): marked enhancement of membrane permeability in all systems | entry into / staining of live cells (living cells; several types of cells): enters many types of live cells quickly and is bright | staining of live gram-positive bacteria (gram-positive bacteria): significantly greater | staining of live gram-negative bacteria (gram-negative bacteria): lightly stain some gram negative organisms
